From US7683182B2, “Crystal forms of 2-(3-fluoro-4-hydroxyphenyl)-7-vinyl-1,3-benzoxazol-5-ol” (Wyeth LLC, priority 2005, dated 2010)

Key:
Type in all cases: physicochemical
[1] = Water solubility of the crystal forms; settings: Table 2 data
[2] = Dynamic vapor sorption (DVS), hygroscopicity; settings: for DVS gain: 0-90% RH; for Hygroscopicity (from DVS weight gain): DVS data of Table 2
Source text: Dynamic Vapor Sorption (Allentown, Pa.) was used to measure the hygroscopicity of the anhydrate and monohydrate of the invention (see FIGS. 6 and 7). The step conditions were three hours each at 0%, 30%, 52.5%, 75% and 90% RH, two full cycles.

[3] = Stability studies, short term (XRPD)
[4] = Stability studies, medium term (XRPD and TGA)
Description: Samples of monohydrate were stored at room temperature, 56° C., and 70° C. for one week. At room temperature, humidity was maintained at 0% RH. Humidity was not controlled for the higher temperatures.
The samples were analyzed by XRPD and TGA.

[5] = Stability studies, long term (XRPD, TGA, HPLC); settings: non-micronized, three months
Description: Non-micronized samples of monohydrate and anhydrate were stored at 40° C./75% RH for three months. The monohydrate was also stored at 40° C. without humidity control. During the three months, the samples were checked after two weeks, one month, two months, and three months.

[6] = Stability, separate study of micronized and non-micronized anhydrate (XRPD)
[7] = 40° C. without humidity control

DVS gain [2] | Hygroscopicity (from DVS weight gain) [2] | Stability of crystal form (XRPD) ([3]; 70° C. for one hour) | Stability of crystal form (XRPD) ([3]; 90° C. after one half hour) | Stability of crystal form (XRPD) ([3]; 90° C. after one hour) | Dehydration on storage (XRPD and TGA) ([4]; 56° C., humidity not controlled, one week) | Dehydration on storage (XRPD and TGA) ([4]; 70° C., humidity not controlled, after 1 day) | Dehydration on storage (XRPD and TGA) ([4]; 70° C., humidity not controlled, after 4 days) | Dehydration on storage (XRPD and TGA) ([4]; 70° C., humidity not controlled, after 7 days) | Dehydration on storage (XRPD and TGA) ([4]; room temperature, 0% RH, one week) | Chemical stability (HPLC) [5, 7] | Transformation of crystal form (XRPD and TGA) [5, 7] | Chemical stability (HPLC) ([5]; 40° C./75% RH) | Transformation of crystal form (XRPD and TGA) ([5]; 40° C./75% RH) | Transformation to the monohydrate (XRPD) ([6]; micronized, 25° C./60% RH, three months) | Transformation to the monohydrate (XRPD) ([6]; micronized, 40° C./75% RH, one month) | Transformation to the monohydrate (XRPD) ([6]; non-micronized, 40° C./75% RH) | Compound | Water solubility compared between the two forms [1]
0.1% gain (0-90% RH) | largely non-hygroscopic | stable | partially dehydrated | completely dehydrated | no obvious dehydration | no obvious hydration | partially dehydrated | mostly dehydrated | no obvious dehydration | chemically stable | did not transform | chemically stable | did not transform | – | – | – | C=Cc1cc(O)cc2nc(-c3ccc(O)c(F)c3)oc12 [Monohydrate, 2-(3-fluoro-4-hydroxyphenyl)-7-vinyl-1,3-benzoxazol-5-ol] | significantly lower solubility than the anhydrate
0.2% gain (0-90% RH) | largely non-hygroscopic | – | – | – | – | – | – | – | – | – | – | chemically stable | did not transform | did not transform to the monohydrate | partially transform to the monohydrate | did not show any obvious transformation | C=Cc1cc(O)cc2nc(-c3ccc(O)c(F)c3)oc12 [Anhydrate, 2-(3-fluoro-4-hydroxyphenyl)-7-vinyl-1,3-benzoxazol-5-ol] | –
